Measurements from patent US10765094B2, “Inflammation reporter system” (priority 2014, dated 2020).

What was measured:
[1] = system: inflammation reporter mouse; experiment: Visualization of inflammatory reactions in the inflammation reporter transgenic mouse, bioimaging analyzer (IVIS); type: in vivo; conditions: LPS 3 mg/kg wt intraperitoneally; 0, 4 and 24 hours after administration
Method: The excised and purified gene vector was injected into 200 fertilized eggs at the pronucleus stage which had been taken from mice of the C57BL/6 strain, thereby obtaining 71 pups. The genomic DNA extracted from the body tissue of each pup was used for genotype analysis to thereby obtain 18 founder mice having the gene vector inserted into their genome. Four founder mice were each crossed with a wild-type mouse of the C57BL/6 strain to produce F1 generation mice, which were then examined for reporter molecule reaction when intraperitoneally administered with LPS (Sigma #L2654).
The inflammation reporter mouse thus established was intraperitoneally administered with LPS (Sigma #L2654) at a concentration of 3 mg/kg wt.

[2] = system: mouse-derived macrophage-like cell line RAW264; experiment: Reporter activity in RAW264 cells transiently transfected with the reporter gene vector, luciferase luminescence measured with a luminometer; type: cell-based; conditions: LPS 2 μg/mL
Method: The gene vector constructed as above was transiently introduced into mouse-derived macrophage-like cell line RAW264.
For transfection, Effectene (Qiagen) was used, and the cells at 24 hours after transfection were collected and provided for experiments. To a culture of transiently expressing cells, LPS (Sigma #L2654) was added at a concentration of 2 μg/mL, and the amount of luciferase luminescence at 48 hours after addition was determined by being measured with a luminometer. For use as a control, an LPS-free group was provided. In addition, as a conventional reporter system detecting only IL-1β gene expression, a vector was prepared to have GL4 ligated downstream of a promoter for the IL-1β gene, and cells transfected with this vector were provided for the same test.

Row | Substance | luciferase luminescence signals in the body [1] | reporter signals (amount of luciferase luminescence) upon LPS stimulation ([2]; 48 hours after addition, vs LPS-free group, cells transfected with vector of the present invention or of conventional type) | improvement in sensitivity compared to the vector of conventional type ([2]; 48 hours, conventional vector = GL4 downstream of IL-1β gene promoter) [fold]
1 | lipopolysaccharide [LPS] | luminescence signals from luciferase were able to be captured from all tissues of the body | significant increase in reporter signals | –
2 | vector of the present invention: gene vector: IL-1β promoter/TK promoter, GL4 luciferase, IL-1β partial sequence (17-216 aa), CL1-PEST, SV40 polyA | – | – | ≥ 2
